Records with an inconclusive call do not appear. Calls of active or inactive are those of the source.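 How the source made its calls: active means Compounds that reduce signal, with fitted half-maximal dose at or under twice the top valid tested dose; inconclusive means Poor fit, or flat curve losing 30 to 70% of signal; inactive means Potency past limit, flat within 30%, or opposite direction.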
Assay: viability loss in HEK293T cells – cell-based, ATP luminescence, cherry-pick samples, cytotoxicity control, dose response (AID 687005)
Settings: HEK293T viability, ATP luminescence (CellTiter-Glo), 48 h

SMILES	activity change, negative = cytotoxicity (at 26 µM (top of the series))	other results
Cc1cc(C)c(NC(=O)C2CCCCN2C)c(C)c1 (stereo not drawn)	10.1% (inactive)	–
C[C@@H]1CN([C@@H](C)CO)C(=O)c2cccc(N(C)C)c2O[C@H]1CN(C)C(=O)Nc1ccc(C(F)(F)F)cc1	-5.69% (inactive)	–
Cc1noc(C)c1NC(=O)Nc1ccc2c(c1)C(=O)N([C@@H](C)CO)C[C@H](C)[C@H](CN(C)CC1CCCCC1)O2	-11.6% (inactive)	–
Cc1cccc(NC(=O)CN(C)C(=O)C2CCCC2)c1C	-33.5% (inactive)	–
C[C@@H]1CN([C@@H](C)CO)C(=O)Cc2cc(NS(=O)(=O)c3ccccc3)ccc2O[C@@H]1CN(C)Cc1ccc(Cl)c(Cl)c1	-71.5% (inactive)	–
C/C=C/c1ccc([C@@H]2[C@@H](C#N)N(S(=O)(=O)c3cccc(F)c3)[C@@H]2CO)cc1	4.72% (inactive)	–
CC(=O)N1[C@@H]2c3ccc(-c4ccccc4)c(=O)n3C[C@H]1[C@H](CO)[C@H]2C(=O)Nc1ccccc1	17.2% (inactive)	–
COC(=O)C1=C(C)N(Cc2ccccc2)C(=S)NC1c1ccc(Cl)cc1 (stereo not drawn)	-9.7% (inactive)	–
O=C(NC(=S)Nc1ccc(CN2CCOCC2)cc1)c1ccc([N+](=O)[O-])cc1	-19.4% (inactive)	–
CCC(=O)N1[C@H](CO)[C@H](c2ccc(-c3ccc(F)cc3)cc2)[C@@H]1CNC(C)=O	-42.1% (inactive)	–
COCCNC(=O)C[C@H]1C[C@@H]2c3cc(NC(=O)C4CCC4)ccc3O[C@@H]2[C@H](CO)O1	26.2% (inactive)	–
CCC(=O)N1[C@H](CO)[C@@H](c2ccc(-c3cccnc3)cc2)[C@@H]1CN(C)C(C)=O	–	activity change, negative = cytotoxicity (at 23.5 µM (top of the series)): 3.73% (inactive)
CO[C@@H](CN(C)Cc1ccc2c(c1)OCO2)[C@@H](C)CN(C(=O)c1ccccc1)[C@H](C)CO	29.3% (inactive)	–
Cc1ccc(NC(=O)C2(C)CCCN2CC(C)C)cc1C (stereo not drawn)	–	activity change, negative = cytotoxicity (at 42 µM (top of the series)): -2.43% (inactive)
COC(=O)C1=C(C)N(CC(C)C)C(=S)NC1c1cccc(F)c1 (stereo not drawn)	–	activity change, negative = cytotoxicity (at 30 µM (top of the series)): -13.7% (inactive)
COCC(=O)N(C)C[C@H]1Oc2ncc(-c3ccccc3F)cc2C(=O)N([C@@H](C)CO)C[C@H]1C	-32.3% (inactive)	–
C[C@@H]1CN([C@H](C)CO)C(=O)Cc2cc(NC(=O)CCCCCC(=O)Nc3ccccc3N)ccc2O[C@H]1CN(C)C(=O)Nc1ccccc1	0.594% (inactive)	–

SMILES	activity change, negative = cytotoxicity (at 26 µM (top of the series))	other results
C[C@@H]1CN([C@@H](C)CO)C(=O)Cc2cc(NC(=O)Nc3cccc4ccccc34)ccc2O[C@@H]1CN(C)S(=O)(=O)c1cccs1	153% (inactive)	–
C[C@@H]1CCCCO[C@@H](CN(C)Cc2ccncc2)[C@@H](C)CN([C@@H](C)CO)C(=O)c2cc(NC(=O)c3ccncc3)ccc2O1	–	activity change, negative = cytotoxicity (at 23.5 µM (top of the series)): 46.4% (inactive)
C[C@H]1CN([C@@H](C)CO)S(=O)(=O)c2ccc(C#Cc3cccc(F)c3)cc2O[C@@H]1CN(C)C	-49.7% (inactive)	–
Cc1ccc(C(=O)NC(=S)Nc2ccccc2N2CCCC2)cc1[N+](=O)[O-]	-8.33% (inactive)	–
C[C@@H]1CN([C@@H](C)CO)C(=O)c2cccc(NS(C)(=O)=O)c2O[C@@H]1CN(C)C(=O)Nc1ccc2c(c1)OCO2	-20.4% (inactive)	–
CCC(C)(C(=O)NC1CCCC1)N(C(C)=O)c1ccc(C)cc1 (stereo not drawn)	9.31% (inactive)	–
COCC#Cc1cnc2c(c1)C(=O)N([C@@H](C)CO)C[C@H](C)[C@H](CN(C)C(=O)Nc1ccc(OC)cc1)O2	21.8% (inactive)	–
C[C@@H](NC(=O)C[C@H]1CC[C@@H](NC(=O)Cc2ccccn2)[C@@H](CO)O1)c1ccccc1	-16.9% (inactive)	–
COc1cc(CO)cc(I)c1O[C@H]1C=C(C(=O)NCCO)C[C@@H](N(CC2CCCCC2)C(=O)c2cc3ccccc3oc2=O)[C@@H]1O	29.4% (inactive)	–
C[C@@H]1CN([C@H](C)CO)C(=O)c2c(c3ccccc3n2C)-c2ccccc2CO[C@H]1CN(C)S(=O)(=O)c1cccs1	1.01% (inactive)	–
C[C@H](NC(=O)C[C@@H]1CC[C@@H]2[C@H](COC[C@@H](O)CN2C(=O)Nc2cccc(F)c2)O1)c1ccccc1	-12.7% (inactive)	–
COc1ccccc1NC(=S)NCc1ccc(Cl)cc1	-4.64% (inactive)	–
CC(C)NC(=O)N(C)C[C@H]1Oc2c(NS(=O)(=O)c3ccc(Cl)cc3)cccc2C(=O)N([C@@H](C)CO)C[C@@H]1C	-20.3% (inactive)	–
O=C(c1c(Cl)cccc1Cl)N1CCN(c2ccccn2)CC1	-3.99% (inactive)	–
C[C@@H]1CCCCO[C@H](CN(C)S(=O)(=O)c2cccs2)[C@@H](C)CN([C@@H](C)CO)C(=O)c2cc(NC(=O)CCC(F)(F)F)ccc2O1	0.337% (inactive)	–
C[C@H]1CN([C@@H](C)CO)C(=O)Cc2cc(NS(=O)(=O)c3ccc(F)cc3)ccc2O[C@H]1CN(C)S(=O)(=O)c1ccc(F)cc1	6.2% (inactive)	–

Source: PubChem BioAssay AID687005 (Broad Institute, 2013)
